Source: US20110034441A1, “INDAZOLES AS WNT/B-CATENIN SIGNALING PATHWAY INHIBITORS AND THERAPEUTIC USES THEREOF” (EPITHERIX, LLC, priority 2009, published 2011)

tested on: Wnt; experiment: Wnt reporter screening assay: SP5 promoter (TCF/LEF) firefly luciferase in SW480 cells; assay type: cell-based; conditions: Homo sapiens; SW480 colon cancer cells with SP5 promoter luciferase reporter; 24 hours after compound addition; normalized to DMSO; read-out: Wnt inhibition, IC50
Source text: Another screening assay for Wnt activity is described as follows. Reporter cell lines can be generated by stably transducing cells of cancer cell lines (e.g., colon cancer) with a lentiviral construct that include a wnt-responsive promoter driving expression of the firefly luciferase gene.
Lentiviral constructs can be made in which the SP5 promoter, a promoter having eight TCF/LEF binding sites derived from the SP5 promoter, is linked upstream of the firefly luciferase gene. The lentiviral constructs can also include a hygromycin resistance gene as a selectable marker. The SP5 promoter construct can be used to transduce SW480 cells, a colon cancer cell line having a mutated APC gene that generates a truncated APC protein, leading to de-regulated accumulation of β-catenin.
Cultured SW480 cells bearing a reporter construct can be distributed at approximately 10,000 cells per well into 384 well multiwell plates. Compounds from a small molecule compound library can then be added to the wells in half-log dilutions using a three micromolar top concentration. A series of control wells for each cell type receive only buffer and compound solvent. Twenty-four hours after the addition of compound, reporter activity for luciferases can be assayed, for example, by addition of the BrightGlo luminescence reagent (Promega) and the Victor3 plate reader (Perkin Elmer). Readings can be normalized to DMSO only treated cells, and normalized activities can then be used in the IC50 calculations.

Question: For `CCNCc1cncc(-c2ccc3[nH]nc(-c4nc5c(N6CCCCC6)cccc5[nH]4)c3c2)c1C` [Compound 35, N-((4-methyl-5-(3-(4-(piperidin-1-yl)-1H-benzo[d]imidazol-2-yl)-1H-indazol-5-yl)pyridin-3-yl)methyl)ethanamine], which IC50 is on record?
Answer: 147 to 243 nM

Question: With `O=C(O)c1ccc2[nH]nc(-c3nc4ccccc4[nH]3)c2c1` [Compound 29, 3-(1H-benzimidazol-2-yl)-1H-indazole-5-carboxylic acid] as the compound, how does the IC50 read?
Answer: > 10000 nM

Question: With `O=C(c1ccc2[nH]nc(-c3nc4ccccc4[nH]3)c2c1)N1CCCC1c1ccccc1` (stereo not drawn) [Compound 16] as the compound, how does the IC50 read?
Answer: 3100 nM

Question: `CN1CCN(C(=O)c2ccc3[nH]nc(-c4nc5ccccc5[nH]4)c3c2)CC1` [Compound 25, [3-(1H-benzimidazol-2-yl)-1H-indazole-5-yl]-(4-methyl-piperazin-1-yl)-methanone] was tested. Which IC50 did it give?
Answer: > 10000 nM

Question: With `CN(C)C(=O)c1ccc2[nH]nc(-c3nc4ccccc4[nH]3)c2c1` [Compound 30, 3-(1H-benzo[d]imidazol-2-yl)-N,N-dimethyl-1H-indazole-5-carboxamide] as the compound, how does the IC50 read?
Answer: 2000 nM

Question: For `Cc1ccccc1C1CCCN1C(=O)c1ccc2[nH]nc(-c3nc4ccccc4[nH]3)c2c1` (stereo not drawn) [Compound 15], which IC50 is on record?
Answer: 3000 nM

Question: For `O=C(NC1Cc2ccccc2C1)c1ccc2[nH]nc(-c3nc4ccccc4[nH]3)c2c1` [Compound 4], which IC50 is on record?
Answer: 600 nM

Question: For `CCC(CC)NC(=O)c1ccc2[nH]nc(-c3nc4ccccc4[nH]3)c2c1` [Compound 1, 3-(1H-benzo[d]imidazol-2-yl)-N-(pentan-3-yl)-1H-indazole-5-carboxamide], which IC50 is on record?
Answer: 200 to 310 nM

Question: `CN1CCC(CNC(=O)c2ccc3[nH]nc(-c4nc5ccccc5[nH]4)c3c2)C1` (stereo not drawn) [Compound 3] was tested. Which IC50 did it give?
Answer: 580 nM

Question: Which IC50 does the source give for `Cc1ccccc1O[C@@H]1CCN(C(=O)c2ccc3[nH]nc(-c4nc5ccccc5[nH]4)c3c2)C1` [Compound 18] here?
Answer: 1900 nM

Question: Which IC50 does the source give for `CS(=O)(=O)N1CCCC(NC(=O)c2ccc3[nH]nc(-c4nc5ccccc5[nH]4)c3c2)C1` (stereo not drawn) [Compound 7] here?
Answer: 800 nM

Question: For `CCNCc1cncc(-c2ccc3[nH]nc(-c4nc5c(-c6cccc(C)c6)cccc5[nH]4)c3c2)c1C` [Compound 40, N-((4-methyl-5-(3-(4-m-tolyl-1H-benzo[d]imidazol-2-yl)-1H-indazol-5-yl)pyridin-3-yl)methyl)ethanamine], which IC50 is on record?
Answer: 670 to 860 nM

Question: Which IC50 does the source give for `O=C(c1ccc2[nH]nc(-c3nc4ccccc4[nH]3)c2c1)N1CCCC1` [Compound 20, (3-(1H-benzo[d]imidazol-2-yl)-1H-indazol-5-yl)(pyrrolidin-1-yl)methanone] here?
Answer: 606 nM

Question: With `CCNCc1cncc(-c2ccc3[nH]nc(-c4nc5c(-c6ccccc6C)cccc5[nH]4)c3c2)c1C` [Compound 42, N-((4-methyl-5-(3-(4-o-tolyl-1H-benzo[d]imidazol-2-yl)-1H-indazol-5-yl)pyridin-3-yl)methyl)ethanamine] as the compound, how does the IC50 read?
Answer: 2500 to 3600 nM

Question: `CCNCc1cncc(-c2ccc3[nH]nc(-c4nc5c(-c6ccccc6)cccc5[nH]4)c3c2)c1C` [Compound 39, N-((4-methyl-5-(3-(4-phenyl-1H-benzo[d]imidazol-2-yl)-1H-indazol-5-yl)pyridin-3-yl)methyl)ethanamine] was tested. Which IC50 did it give?
Answer: 690 to 730 nM

Question: Which IC50 does the source give for `O=C(NCC1(O)CCCCC1)c1ccc2[nH]nc(-c3nc4ccccc4[nH]3)c2c1` [Compound 12] here?
Answer: 1600 nM

Question: `CC[C@H](C)[C@@H](CO)NC(=O)c1ccc2[nH]nc(-c3nc4ccccc4[nH]3)c2c1` [Compound 17] was tested. Which IC50 did it give?
Answer: 750 nM

Question: `O=C(NC1CCc2ccccc21)c1ccc2[nH]nc(-c3nc4ccccc4[nH]3)c2c1` (stereo not drawn) [Compound 10] was tested. Which IC50 did it give?
Answer: 1000 nM

Question: How did the IC50 turn out when `CCNCc1cncc(-c2ccc3[nH]nc(-c4nc5c(-n6cnc(C)c6)cccc5[nH]4)c3c2)c1C` [Compound 32, N-((4-methyl-5-(3-(4-(4-methyl-1H-imidazol-1-yl)-1H-benzo[d]imidazol-2-yl)-1H-indazol-5-yl)pyridin-3-yl)methyl)ethanamine] was run?
Answer: 40 to 63 nM

Question: For `CCNCc1cncc(-c2ccc3[nH]nc(-c4nc5ccccc5[nH]4)c3c2)c1` [Compound 38, N-((5-(3-(1H-benzo[d]imidazol-2-yl)-1H-indazol-5-yl)pyridin-3-yl)methyl)ethanamine], which IC50 is on record?
Answer: 124 to 235 nM

Question: For `O=C(NC1CCCN(S(=O)(=O)c2cccc(F)c2)C1)c1ccc2[nH]nc(-c3nc4ccccc4[nH]3)c2c1` (stereo not drawn) [Compound 9], which IC50 is on record?
Answer: 1000 nM

Question: For `Cc1ccc(-n2nc(C(N)=O)c3ccc4[nH]ncc4c32)cc1` [Compound 123], which IC50 is on record?
Answer: 1220 nM

Question: `CC(C)CC(=O)N1CC2CC1CN2C(=O)c1ccc2[nH]nc(-c3nc4ccccc4[nH]3)c2c1` (stereo not drawn) [Compound 8] was tested. Which IC50 did it give?
Answer: 930 nM

Question: Which IC50 does the source give for `Cc1ccc(CN2CCN(C(=O)c3ccc4[nH]nc(-c5nc6ccccc6[nH]5)c4c3)CC2)cc1` [Compound 21, (3-(1H-benzo[d]imidazol-2-yl)-1H-indazol-5-yl)(4-(4-methylbenzyl)piperazin-1-yl)methanone] here?
Answer: 5300 nM

Question: `CCNCc1cncc(-c2ccc3[nH]nc(-c4nc5ccc(COC)cc5[nH]4)c3c2)c1C` [Compound 33] was tested. Which IC50 did it give?
Answer: 680 nM

Question: With `CN1CCCCC1CNC(=O)c1ccc2[nH]nc(-c3nc4ccccc4[nH]3)c2c1` (stereo not drawn) [Compound 5] as the compound, how does the IC50 read?
Answer: 630 nM

Question: Which IC50 does the source give for `O=C(NC1CCN(Cc2ccccc2)CC1)c1ccc2[nH]nc(-c3nc4ccccc4[nH]3)c2c1` [Compound 19, 3-(1H-benzo[d]imidazol-2-yl)-N-(1-benzylpiperidin-4-yl)-1H-indazole-5-carboxamide] here?
Answer: 330 to 400 nM

Question: With `O=C(NC1CCCN(S(=O)(=O)c2ccccc2F)C1)c1ccc2[nH]nc(-c3nc4ccccc4[nH]3)c2c1` (stereo not drawn) [Compound 2] as the compound, how does the IC50 read?
Answer: 500 nM

Question: Which IC50 does the source give for `CCNCc1cncc(-c2ccc3[nH]nc(-c4nc5c(-c6cccnc6)cccc5[nH]4)c3c2)c1C` [Compound 37, N-((4-methyl-5-(3-(4-(pyridin-3-yl)-1H-benzo[d]imidazol-2-yl)-1H-indazol-5-yl)pyridin-3-yl)methyl)ethanamine] here?
Answer: 200 to 240 nM

Question: With `CCNC(=O)c1cncc(-c2ccc3[nH]nc(-c4nc5ccccc5[nH]4)c3c2)c1` [Compound 44, 5-(3-(1H-benzo[d]imidazol-2-yl)-1H-indazol-5-yl)-N-ethyl nicotinamide] as the compound, how does the IC50 read?
Answer: 960 to 1560 nM

Question: `O=C(c1ccc2[nH]nc(-c3nc4ccccc4[nH]3)c2c1)N1CCSCC1` [Compound 24, (3-(1H-benzo[d]imidazol-2-yl)-1H-indazol-5-yl)(thiomorpholino)methanone] was tested. Which IC50 did it give?
Answer: 8000 nM

Question: With `N#Cc1ccc2[nH]nc(-c3nc4ccccc4[nH]3)c2c1` [Compound 27, 3-(1H-benzo[d]imidazol-2-yl)-1H-indazole-5-carbonitrile] as the compound, how does the IC50 read?
Answer: > 10000 nM

Question: `Cc1ccccc1OC1CCN(C(=O)c2ccc3[nH]nc(-c4nc5ccccc5[nH]4)c3c2)C1` (stereo not drawn) [Compound 14] was tested. Which IC50 did it give?
Answer: 1900 nM

Question: Which IC50 does the source give for `CN1CCCN(C(=O)c2ccc3[nH]nc(-c4nc5ccccc5[nH]4)c3c2)CC1` [Compound 22, (3-(1H-benzo[d]imidazol-2-yl)-1H-indazol-5-yl)(4-methyl-1,4-diazepan-1-yl)methanone] here?
Answer: 1850 nM

Question: With `CCNCc1cncc(-c2ccc3[nH]nc(-c4nc5ccccc5[nH]4)c3c2)c1C` [Compound 31, N-((5-(3-(1H-benzo[d]imidazol-2-yl)-1H-indazol-5-yl)-4-methylpyridin-3-yl)methyl)ethanamine] as the compound, how does the IC50 read?
Answer: 243 nM

Question: Which IC50 does the source give for `Cc1cc(C)cc(-c2ccc3c(NC(=O)NCC4CC4)n[nH]c3c2)c1` [Compound 48] here?
Answer: 390 nM

Question: For `COc1ccc(S(=O)(=O)N2CCCC(NC(=O)c3ccc4[nH]nc(-c5nc6ccccc6[nH]5)c4c3)C2)cc1` (stereo not drawn) [Compound 11], which IC50 is on record?
Answer: 1300 nM

Question: Which IC50 does the source give for `Cc1cn(-c2cccc3[nH]c(-c4n[nH]c5ccc(-c6cnccc6C)cc45)nc23)cn1` [Compound 34, 3-(4-(4-methyl-1H-imidazol-1-yl)-1H-benzo[d]imidazol-2-yl)-5-(4-methylpyridin-3-yl)-1H-indazole] here?
Answer: 10 to 46 nM

Question: With `O=C(NCc1ccccc1)c1cncc(-c2ccc3[nH]nc(-c4nc5ccccc5[nH]4)c3c2)c1` [Compound 45, 5-(3-(1H-benzo[d]imidazol-2-yl)-1H-indazol-5-yl)-N-benzylnicotinamide] as the compound, how does the IC50 read?
Answer: 1230 to 2280 nM

Question: How did the IC50 turn out when `O=C(c1ccc2[nH]nc(-c3nc4ccccc4[nH]3)c2c1)N1CCOCC1` [Compound 23, (3-(1H-benzo[d]imidazol-2-yl)-1H-indazol-5-yl)(morpholino) methanone] was run?
Answer: > 10000 nM

Question: With `CS(=O)(=O)N1CCCC(CNC(=O)c2ccc3[nH]nc(-c4nc5ccccc5[nH]4)c3c2)C1` (stereo not drawn) [Compound 13] as the compound, how does the IC50 read?
Answer: 1800 nM

Question: Which IC50 does the source give for `CCNCc1cncc(-c2ccc3[nH]nc(-c4nc5c(N6CCCC6)cccc5[nH]4)c3c2)c1C` [Compound 36, N-((4-methyl-5-(3-(4-(pyrrolidin-1-yl)-1H-benzo[d]imidazol-2-yl)-1H-indazol-5-yl)pyridin-3-yl)methyl)ethanamine] here?
Answer: 750 nM

Question: Which IC50 does the source give for `CCNCc1cncc(-c2ccc3[nH]nc(-c4nc5c(-c6ccc(C)cc6)cccc5[nH]4)c3c2)c1C` [Compound 41, N-((4-methyl-5-(3-(4-p-tolyl-1H-benzo[d]imidazol-2-yl)-1H-indazol-5-yl)pyridin-3-yl)methyl)ethanamine] here?
Answer: 330 to 470 nM

Question: `O=C(c1ccc2[nH]nc(-c3nc4ccccc4[nH]3)c2c1)N1CCCCC1` [Compound 26, (3-(1H-benzo[d]imidazol-2-yl)-1H-indazol-5-yl)(piperidin-1-yl)methanone] was tested. Which IC50 did it give?
Answer: > 10000 nM

same assay, conditions: SW480 colon cancer cells with SP5 promoter luciferase reporter; 24 hours after compound addition; normalized to DMSO; read-out: Wnt inhibition, IC50

Question: Which IC50 does the source give for “N-ethyl-4-methyl-5-(3-(4-(4-methyl-1H-imidazol-1-yl)-1H-benzo[d]imidazol-2-yl)-1H-indazol-5-yl)nicotinamide [Compound 43]” here?
Answer: 77 to 96 nM
